One block for each molecule: values may come before it.
What was measured:
[1] = Whole body retention of radionuclide 24 hours after antibody/chelate complex (Table 1); format: in vivo; details: WC3A11 antibody; vs less tightly bound In-TBEDTA
[2] = system: KHJJ adenocarcinoma tumor; assay: Tumor imaging and biodistribution after WC3A11, clearing agent and radiolabelled chelate (Example 6); format: in vivo, Balb/c mice
Procedure: Three hours later, a whole-body scan, using computer digitation of the whole-body image, was performed on the animals.

[3] = system: KHJJ adenocarcinoma tumor; assay: Tumor targeting, first study: antibody complexed with L-benzyl-EDTA-111In, 24 h biodistribution; format: in vivo, Balb/C mice
Procedure: (§1) This example examines the targeting of ^111 In in animal tumors, according to the method of the invention. Balb/C mice were prepared with a KHJJ adenocarcinoma tumor implants in the flank. A hybridoma cell line designated CHA255 specific against L-benzyl-EDTA-In was prepared by methods similar to those described in Example II, using as an immunogen, an L-benzyl-EDTA-In (para-nitrophenolbenzyl-EDTA-In) group derivatized in KLH.
In a first study, a group of three mice were initially injected with 100 ug (about 0.7 nmole) of the CHA255 antibody complexed with L-benzyl-EDTA-^111 In compound. Twenty four hours later, the animals were sacrificed, and examined for ^111 In levels in the blood, tumor, and several organs which are listed in Table 3A. The radioactivity levels were calculated in terms of percent of total radioactivity per gram tissue. The average of values obtained for three mice, and standard deviations, are given to the middle column in Table 2A. Tumor/organ (T/O) ratios are shown at the right the table.

[4] = system: KHJJ adenocarcinoma tumor; assay: Tumor targeting, third study: antibody, clearing agent, then hapten; 3 h post hapten biodistribution; format: in vivo, Balb/C mice
Procedure: as §1
A third study examined the degree of tumor localization achievable by an antibody, antibody clearance, and compound administration regimen carried out in accordance with the invention. The CHA255 antibody was administered to each of three animals and allowed to localize for 24 hours, at which time the antibody was cleared from the bloodstream by administration of a clearing agent consisting of transferring derivatized with L-benzyl-EDTA-In. One hour later, the L-benzyl-EDTA-^111 In compound was administered, and the animals sacrificed after an additional three hours.

[5] = system: KHJJ adenocarcinoma tumor; assay: Tumor targeting, second study: antibody 23 h prior to hapten, 1 h post hapten biodistribution; format: in vivo, Balb/C mice
Procedure: as §1
In a second study, the antibody alone was administered to each of three animals, and allowed to localize for 23 hours, at which time the L-benzyl-EDTA-^111 In compound was administered. One hour later the animals were sacrificed and again examined for radioactivity levels.

[6] = Whole body retention of antibody complexes of EDTA-111In or 57Co compounds (Example 4); format: in vivo, Balb/C mice; details: WC3A11 complex
Procedure: EDTA and BABE-EDTA were complexed with ^111 In and bleomycin, with ^57 Co, as in Example 1. […] BLEDTA-IV-^111 In, a bleomycin-EDTA-In compound containing EDTA linked to bleomycin through a dithiobutane spacer, was prepared as described in co-owned patent application for "Bleomycin Conjugates and Methods". TBEDTA-^111 In was prepared as in Example 1. WC3A11 antibody complexes were formed by incubating the WC3A11 antibody from Example 2 with a selected ^111 In cpm amount of (a) ^111 -In-EDTA, (b) ^111 In-BABE-EDTA, (c) BLEDTA-II-^111 In, (d) BL-^57 Co. (e) BLEDTA-IV-^111 In, or (f) TBEDTA-^111 In.
Each of the antibody/EDTA-^111 In or ^57 Co complexes (a)-(f) was subjected intravenously to each of three Balb/C mice, in an amount between about 200-800 μg per animal. Twenty-four hours after the injection, the total body radioactivity of ^111 In was measured in a dual-probe scintillation counter. The values were averaged for the three animals. […] By contrast, the antibody complexes of compounds (e) and (f) (both of which contain a thiobutane-BABE-EDTA moiety) were retained to more than 30% after 24 hours, at an initial dose of about 180 μg antibody, and to greater than about 70% of an initial antibody dose of about 800 μg antibody.

[7] = biological target: avidin (Gallus gallus, UniProt P02701); assay: Binding of biotinylated chelate to avidin
Description: To illustrate a derivatization reaction used in preparing a epitopic compound, the above bifunctional chelates can be coupled to a biotin moiety, to produce of epitopic biotin chelate capable of specific, high-affinity binding to avidin. In one coupling method, a bifunctional chelate having a free-end amine is reacted with an N-hydroxysuccinamide (NHS) ester of biotin, to link the biotin to the chelate amine through an amide linkage. The chelate amine may be formed from BABE-EDTA, for example, by amination in concentrated aqueous ammonium, and the NHS biotin ester is commercially available. […] Other active agents can be biotinylated or derivatized with carbohydrate or haptenic molecules in a similar manner.

Chain of avidin (P02701 25-152): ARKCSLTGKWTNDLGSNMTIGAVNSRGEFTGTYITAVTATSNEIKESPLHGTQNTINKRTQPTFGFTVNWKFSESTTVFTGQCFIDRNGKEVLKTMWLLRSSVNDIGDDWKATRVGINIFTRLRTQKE

Structure (SMILES): O=C([O-])CN(CC(=O)[O-])CC(Cc1ccc(NC(=O)CSCCCCS)cc1)N(CC(=O)[O-])CC(=O)[O-].[Co+3] (stereo not shown) [Co-TBEDTA]
whole body retention (in words) [1]: substantially greater retention | whole-body scan, label localization at 3 hours (in words) ([2]; FIG. 3A, 3 hours): localization of the label in the kidneys (K), bladder (B) and flank tumor (T) | whole-body scan at 24 hours (in words) ([2]; FIG. 3B, 24 hours): absence of label in the bladder. Good tumor imaging with low background is still achieved | tumor uptake and tumor-to-organ ratios (in words) ([2]; Table 3, 3 hours): high tumor-to-organ ratios for blood, and other internal organs

Structure (SMILES): O=C([O-])CN(CC(=O)[O-])CC(Cc1ccccc1)N(CC(=O)[O-])CC(=O)[O-].[111In+3] [L-benzyl-EDTA-^111 In]
radioactivity remaining in blood and localized in tumor (in words) ([3]; 24 hours, Table 2A): a large percentage of radioactivity remained in the blood, although high amounts were also tumor-localized | 24 Hr Conc, Blood ([3]; Hapten-Ab complex (CHA255), 24 h, blood): 13.41 ± 1.48 %/gm | 24 Hr Conc, Bone ([3]; Hapten-Ab complex (CHA255), 24 h, bone): 1.42 ± 0.22 %/gm | 24 Hr Conc, Gut ([3]; Hapten-Ab complex (CHA255), 24 h, gut): 2.07 ± 1.42 %/gm | 24 Hr Conc, Heart ([3]; Hapten-Ab complex (CHA255), 24 h, heart): 3.23 ± 0.48 %/gm | 24 Hr Conc, Kidneys ([3]; Hapten-Ab complex (CHA255), 24 h, kidneys): 3.73 ± 0.81 %/gm | 24 Hr Conc, Liver ([3]; Hapten-Ab complex (CHA255), 24 h, liver): 5.76 ± 0.86 %/gm | 24 Hr Conc, Lungs ([3]; Hapten-Ab complex (CHA255), 24 h, lungs): 6.50 ± 0.91 %/gm | 24 Hr Conc, Muscle ([3]; Hapten-Ab complex (CHA255), 24 h, muscle): 1.18 ± 0.16 %/gm | 24 Hr Conc, Skin ([3]; Hapten-Ab complex (CHA255), 24 h, skin): 2.35 ± 1.19 %/gm | 24 Hr Conc, Spleen ([3]; Hapten-Ab complex (CHA255), 24 h, spleen): 2.50 ± 0.37 %/gm | 24 Hr Conc, Tumor ([3]; Hapten-Ab complex (CHA255), 24 h, tumor): 11.26 ± 1.40 %/gm | T/O Ratio, Blood ([3]; Hapten-Ab complex, 24 h, tumor/blood): 0.8 | T/O Ratio, Bone ([3]; Hapten-Ab complex, 24 h, tumor/bone): 8.0 | T/O Ratio, Gut ([3]; Hapten-Ab complex, 24 h, tumor/gut): 7.4 | T/O Ratio, Heart ([3]; Hapten-Ab complex, 24 h, tumor/heart): 3.5 | T/O Ratio, Kidneys ([3]; Hapten-Ab complex, 24 h, tumor/kidneys): 3.1 | T/O Ratio, Liver ([3]; Hapten-Ab complex, 24 h, tumor/liver): 2.0 | T/O Ratio, Lungs ([3]; Hapten-Ab complex, 24 h, tumor/lungs): 1.7 | T/O Ratio, Muscle ([3]; Hapten-Ab complex, 24 h, tumor/muscle): 9.6 | T/O Ratio, Skin ([3]; Hapten-Ab complex, 24 h, tumor/skin): 5.7 | T/O Ratio, Spleen ([3]; Hapten-Ab complex, 24 h, tumor/spleen): 4.5 | Conc 3 Hrs Post Hapten, Blood ([4]; Ab 25 Hr, blocking agent 1 Hr prior to hapten, 3 h, blood): 0.95 ± 0.44 %/gm | Conc 3 Hrs Post Hapten, Bone ([4]; Ab 25 Hr, blocking agent 1 Hr prior to hapten, 3 h, bone): 1.50 ± 0.37 %/gm | Conc 3 Hrs Post Hapten, Gut ([4]; Ab 25 Hr, blocking agent 1 Hr prior to hapten, 3 h, gut): 2.66 ± 0.61 %/gm | Conc 3 Hrs Post Hapten, Heart ([4]; Ab 25 Hr, blocking agent 1 Hr prior to hapten, 3 h, heart): 0.92 ± 0.29 %/gm | Conc 3 Hrs Post Hapten, Kidneys ([4]; Ab 25 Hr, blocking agent 1 Hr prior to hapten, 3 h, kidneys): 1.10 ± 0.16 %/gm | Conc 3 Hrs Post Hapten, Liver ([4]; Ab 25 Hr, blocking agent 1 Hr prior to hapten, 3 h, liver): 0.87 ± 0.39 %/gm | Conc 3 Hrs Post Hapten, Lungs ([4]; Ab 25 Hr, blocking agent 1 Hr prior to hapten, 3 h, lungs): 2.55 ± 0.24 %/gm | Conc 3 Hrs Post Hapten, Muscle ([4]; Ab 25 Hr, blocking agent 1 Hr prior to hapten, 3 h, muscle): 3.48 ± 0.77 %/gm | Conc 3 Hrs Post Hapten, Skin ([4]; Ab 25 Hr, blocking agent 1 Hr prior to hapten, 3 h, skin): 4.86 ± 0.45 %/gm | Conc 3 Hrs Post Hapten, Spleen ([4]; Ab 25 Hr, blocking agent 1 Hr prior to hapten, 3 h, spleen): 0.21 ± 0.04 %/gm | Conc 3 Hrs Post Hapten, Tumor ([4]; Ab 25 Hr, blocking agent 1 Hr prior to hapten, 3 h, tumor): 7.72 ± 1.35 %/gm | In levels in blood and internal organs relative to tumor (in words) ([4]; after clearing agent): In levels in the blood and internal organs was greatly reduced relative to the levels concentrated in the tumor | T/O Ratio, Blood ([4]; blocking agent 1 Hr prior to hapten, 3 h, tumor/blood): 9.20 | T/O Ratio, Bone ([4]; blocking agent 1 Hr prior to hapten, 3 h, tumor/bone): 5.40 | T/O Ratio, Gut ([4]; blocking agent 1 Hr prior to hapten, 3 h, tumor/gut): 2.97 | T/O Ratio, Heart ([4]; blocking agent 1 Hr prior to hapten, 3 h, tumor/heart): 8.71 | T/O Ratio, Kidneys ([4]; blocking agent 1 Hr prior to hapten, 3 h, tumor/kidneys): 7.04 | T/O Ratio, Liver ([4]; blocking agent 1 Hr prior to hapten, 3 h, tumor/liver): 10.21 | T/O Ratio, Lungs ([4]; blocking agent 1 Hr prior to hapten, 3 h, tumor/lungs): 3.02 | T/O Ratio, Muscle ([4]; blocking agent 1 Hr prior to hapten, 3 h, tumor/muscle): 2.33 | T/O Ratio, Skin ([4]; blocking agent 1 Hr prior to hapten, 3 h, tumor/skin): 1.61 | T/O Ratio, Spleen ([4]; blocking agent 1 Hr prior to hapten, 3 h, tumor/spleen): 38.03 | Conc 1 Hr Post Hapten, Blood ([5]; Ab 23 Hr prior to hapten, 1 h, blood): 24.01 ± 0.80 %/gm | Conc 1 Hr Post Hapten, Bone ([5]; Ab 23 Hr prior to hapten, 1 h, bone): 1.57 ± 0.09 %/gm | Conc 1 Hr Post Hapten, Gut ([5]; Ab 23 Hr prior to hapten, 1 h, gut): 1.51 ± 0.19 %/gm | Conc 1 Hr Post Hapten, Heart ([5]; Ab 23 Hr prior to hapten, 1 h, heart): 5.40 ± 0.49 %/gm | Conc 1 Hr Post Hapten, Kidneys ([5]; Ab 23 Hr prior to hapten, 1 h, kidneys): 5.87 ± 0.81 %/gm | Conc 1 Hr Post Hapten, Liver ([5]; Ab 23 Hr prior to hapten, 1 h, liver): 6.35 ± 0.50 %/gm | Conc 1 Hr Post Hapten, Lungs ([5]; Ab 23 Hr prior to hapten, 1 h, lungs): 9.72 ± 0.24 %/gm | Conc 1 Hr Post Hapten, Muscle ([5]; Ab 23 Hr prior to hapten, 1 h, muscle): 1.44 ± 0.16 %/gm | Conc 1 Hr Post Hapten, Skin ([5]; Ab 23 Hr prior to hapten, 1 h, skin): 1.60 ± 0.20 %/gm | Conc 1 Hr Post Hapten, Spleen ([5]; Ab 23 Hr prior to hapten, 1 h, spleen): 3.03 ± 0.27 %/gm | Conc 1 Hr Post Hapten, Tumor ([5]; Ab 23 Hr prior to hapten, 1 h, tumor): 4.08 ± 0.51 %/gm | T/O Ratio, Blood ([5]; Ab 23 Hr prior to hapten, 1 h, tumor/blood): 0.17 | T/O Ratio, Bone ([5]; Ab 23 Hr prior to hapten, 1 h, tumor/bone): 2.59 | T/O Ratio, Gut ([5]; Ab 23 Hr prior to hapten, 1 h, tumor/gut): 2.73 | T/O Ratio, Heart ([5]; Ab 23 Hr prior to hapten, 1 h, tumor/heart): 0.76 | T/O Ratio, Kidneys ([5]; Ab 23 Hr prior to hapten, 1 h, tumor/kidneys): 0.70 | T/O Ratio, Liver ([5]; Ab 23 Hr prior to hapten, 1 h, tumor/liver): 0.64 | T/O Ratio, Lungs ([5]; Ab 23 Hr prior to hapten, 1 h, tumor/lungs): 0.42 | T/O Ratio, Muscle ([5]; Ab 23 Hr prior to hapten, 1 h, tumor/muscle): 2.84 | T/O Ratio, Skin ([5]; Ab 23 Hr prior to hapten, 1 h, tumor/skin): 2.57 | T/O Ratio, Spleen ([5]; Ab 23 Hr prior to hapten, 1 h, tumor/spleen): 1.36 | tumor uptake and tumor/organ uptake ratios (in words) ([5]; compared with coadministration of antibody and In compound): lower levels of tumor uptake and lower tumor/organ uptake ratios

Structure (SMILES): O=C([O-])CN(CC(=O)[O-])CC(Cc1ccc(NC(=O)CSCCCCS)cc1)N(CC(=O)[O-])CC(=O)[O-].[111In+3] (stereo not shown) [TBEDTA-^111 In]
retained after 24 hours, about 180 μg antibody ([6]; initial dose about 180 μg antibody): more than 30% | retained after 24 hours, about 800 μg antibody ([6]; initial dose about 800 μg antibody): greater than 70%

binding to avidin (in words) [7]: bind with high affinity to avidin
Structure (SMILES): O=C(O)CN(CC(=O)O)CC(Cc1ccc(NC(=O)CNC(=O)CCCC[C@@H]2SC[C@@H]3NC(=O)N[C@@H]32)cc1)N(CC(=O)O)CC(=O)O (stereo partly shown) [biotinylated glycineamidobenzyl EDTA]
